US20120071628A1, “TOPICAL THERAPEUTIC AGENT FOR OPHTHALMIC DISEASES COMPRISING COMPOUND CAPABLE OF BINDING SPECIFICALLY TO DNA SEQUENCE” (NIHON UNIVERSITY, priority 2009, published 2012)

Tests used:
[1] = tested on: nucleus of cells in the cornea; assay: Distribution of FITC-labeled polyamide in the cornea of alkali injury model rats; type: in vivo, rat; conditions: 1 hour after administration, 1 μmol/L, 5 μl instilled
Method: The synthesized FITC polyamide was dissolved in 0.1% acetic acid solution, the concentration was adjusted to 1 μmol/L, 5 μl of the solution was dropped on the central part of the cornea of 8 alkali injury model rats at 1 hour after induction of a trauma. Two animals each were euthanized at 1 hour and on 1, 4, and 7 days after instillation of the FITC polyamide. The eyeball was isolated, embedded in the OCT compound (Miles, Elkhart, Ind., USA) in a plastic container for a frozen section sample, frozen with liquid nitrogen, and stored in an ultra-low temperature refrigerator at −80° C. The sample was thinly sliced into a section of 5 μm and observed under a fluorescence microscope (Olympus Corporation).

[2] = tested on: alkali burn rat model (cornea); assay: Corneal opacity, ulceration and corneal defect in rats with alkali burn; type: in vivo; conditions: 1 μmol/L, 5 μl instilled once daily for 1 week, versus 0.1% aqueous acetic acid control
Method: 8-week-old male Wister rats were prepared and anesthetized with diethyl ether. Then, 5 μl of 0.5 N sodium hydroxide solution was administered […] to adult Wister rats by instilling the central part of the cornea of both eyes or one eye by a common method according to Saika et al. (Am J. Patho., 2005). At 10 seconds after instillation, the alkali liquid was washed off from the cornea surface with 10 ml of phosphate buffer to prepare an alkali burn rat model.
At 1 hour after a trauma due an alkali burn was induced (9.00 am), and 1 μmol/L rTGF-β (GBP1201) PIP compound and 1 μmol/L of a mixture of rMMP9AP1 and rMMP9NFkB in 1:1 (hereinafter, also referred to as rMMP9PIP) dissolved in 5 μl of 0.1% acetic acid hydrate were administered to the rat right eye by dropping in the central part of the cornea at 9.00 am once daily every day for 1 week. As a control, 0.1% aqueous acetic acid solution was administered to the left eye in the same manner as described above. The same experiment was performed in 6 rats. The reason why 0.1% aqueous acetic acid solution was used was that the PIP compound of the present invention was dissolved in this aqueous solution. Furthermore, to prevent the occurrence of an infection, antibiotic eye ointment Tarivid Ophthalmic Ointment 0.3% (Santen Pharmaceutical Co., Ltd.) was administered at 5.00 pm every day. Furthermore, the drug was administered to 2 rats in which an alkali burn was not induced as controls. Rats were observed every day at the time of instillation and application of an eye ointment, and the cornea was observed and photographed every evening. […] By utilizing this property, the corneal injury was evaluated according to the cornea fluorescein test using a FLUORES test paper (Showa Yakuhin Kako Co., Ltd.) that can test the corneal condition.
The cornea was observed until complete reepithelialization was observed. When the fluorescence staining of the cornea was not observed, complete reepithelialization was defined.
Transparency of the cornea was evaluated as follows. […]

rTGF-β1 promoter = assay: Luciferase reporter plasmid assay of rTGF-β1 promoter expression induced by PMA; type: cell-based, rat; conditions: luciferase reporter plasmid with rTGF-β1 promoter region
Excerpt: The reporter gene expression induced by adding PMA was inhibited by adding GBP1201 and GBP1203 but not by the mismatch polyamide.

[3] = tested on: double-stranded oligo DNA containing the AP-1 binding site that corresponds to the TGF-β1 promoter; assay: Gel shift assay of PIP binding to target DNA; set-up: species or system rat
Method: For the gel shift assay, a fluorescence-labeled match oligo DNA containing the AP-1 binding site that corresponds to the TGF-β1 promoter was synthesized. Sense and antisense oligo DNA suitable for the test were annealed to prepare a double-stranded oligo DNA. 1 μM DNA was incubated with 50 μM PIP compound at 37° C. for 1 hour, separated by electrophoresis using 20% polyacrylamide gel, and visualized using a fluorescence image analyzer LAS-3000 (Fuji Film, Tokyo, Japan).

TGF-β1 protein = assay: Immunohistochemistry test of rat eyes after corneal injury; type: in vivo; conditions: day 1 after alkali injury
Method: At 1 hour and on 1, 4, and 7 days after induction of a corneal injury in rats, the eyeball was isolated and embedded in the OCT compound (Miles, Elkhart, Ind., USA.). The frozen section was sliced into sections having a thickness of 5 μm, and histological and immunohistological analyses were performed. Using rabbit-anti-human Tgf-β1 polyclonal antibody (Yanaihira, Japan, catalog No. Y241) as a primary antibody, the sample was diluted 1000-fold before use. 4 nontrauma corneas as normal controls were used to compare rTGF-β (GBP1201) PIP-treated eyes and mock-treated eyes. To determine the specificity of the primary antibody, a negative control was also included.

[4] = tested on: biotin-labeled double-stranded oligo DNA (target DNA, rat TGF-β1 promoter); assay: Biacore assay of binding affinity for target DNA; conditions: surface plasmon resonance
Excerpt: Biacore assay can measure binding affinity of rTGF-β (GBP1201) PIP for a target DNA in real time.
Biotin-labeled oligo DNA were annealed to form a double strand, and the double strand was immobilized on a sensor chip SA (Biacore, Uppsala, Sweden) on which streptavidin was immobilized beforehand.
Dynamics of interactions of rTGF-β (GBP1201) PIP, mismatch (FIG. 41 [a]) and biotin-labeled oligo DNA were investigated using Biacore 2000 System (Biacore, Uppsala, Sweden). Data was processed according to the protocol recommended by Biacore2000.

Structure (SMILES)	FITC fluorescence in the cornea [1]	healing of corneal opacity and ulceration [2]	healing of corneal defect (severity of corneal defect) ([2]; listed as TGF-β (GBP1201) PIP)	healing of corneal defect (severity of corneal defect) ([2]; listed as rTGF-β (GBP1201) PIP compound)	reporter gene expression induced by adding PMA (rTGF-β1 promoter)	binding to the target DNA (gel shift) ([3]; 1 μM DNA, 50 μM PIP compound, 37° C., 1 hour)	binding to the mismatch polyamide (gel shift (so in the source)) ([3]; gel shift assay)	TGF-β1 immunohistology versus controls (TGF-β1 protein)	binding affinity for target DNA relative to the mismatch polyamide [4] [times]	Kd ([4]; target DNA, 0-300 nM) [nM]
CN(C)CCCNC(=O)CCNC(=O)c1nc(NC(=O)c2nc(NC(=O)CCNC(=O)c3cc(NC(=O)c4cc(NC(=O)c5nc(NC(=O)CCCNC(=O)c6cc(NC(=O)c7cc(NC(=O)c8nc(NC(=O)CCNC(=O)c9cc(NC(=O)c%10cc(NC(=O)CCNC(=S)Nc%11ccc%12c(c%11)C(=O)OC%12%11c%12ccc(O)cc%12Oc%12cc(O)ccc%12%11)cn%10C)cn9C)cn8C)cn7C)cn6C)cn5C)cn4C)cn3C)cn2C)cn1C [rTGF-β (GBP1201) FITC]	green FITC fluorescence is observed in the corneal epithelium and in the nucleus of interstitial cells in the cornea	–	–	–	–	–	–	–	–	–
CC(=O)Nc1cc(C(=O)Nc2cc(C(=O)NCCC(=O)Nc3cn(C)c(C(=O)Nc4cc(C(=O)Nc5cc(C(=O)NCCCC(=O)Nc6cn(C)c(C(=O)Nc7cc(C(=O)Nc8cc(C(=O)NCCC(=O)Nc9cn(C)c(C(=O)Nc%10cn(C)c(C(=O)NCCC(=O)NCCCN(C)C)n%10)n9)n(C)c8)n(C)c7)n6)n(C)c5)n(C)c4)n3)n(C)c2)n(C)c1 [rTGF-β (GBP1201)]	–	significantly better than the control	significantly earlier (approximately twice as fast) than the control	significantly better than the control	inhibited	bound specifically to the target DNA	did not bind to the mismatch polyamide	No immunohistological difference	149	5.12
